Activity calls are given as the source filed them.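 The calls were made as follows: active = compounds giving half or more protection of infected cells from virus-caused growth loss, again on retest; inactive = the rest.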
System: CEM cells HIV-1 protection, formazan growth assay
Assay: NCI AIDS Antiviral Assay
Details: for IC50: measured here: growth of uninfected CEM cells
How it was run: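 Category rules: moderately active means at least 50% protection on retest, and confirmed active means 100% protection reproducibly. The underlying data came from a formazan growth assay in HIV-1-infected CEM cells.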

SMILES	EC50	IC50	outcome
[Ni+2].[O-]/C(=N\N=C/c1ccc(C(F)(F)F)cc1)c1ccncc1.[O-]/C(=N\N=C\c1ccc(C(F)(F)F)cc1)c1ccncc1	> 100 µM	16.6 µM	–
CCC(C)C(NC(=O)c1ccccc1SC(=O)OCCCC[n+]1ccccc1)C(N)=O (stereo not drawn)	–	–	inactive
CC1(Cl)CCC2(CC1Br)C(C)(C)C(Br)=CC1OC12C (stereo not drawn)	> 200 µM	33.9 µM	–
Oc1ccccc1C=NCCSSCCN=Cc1ccccc1O	–	–	inactive
CC(C)C1CCC/C=C/C=C/C=C/C=C/C(OC2OC(C)C(O)C(N)C2O)CC2OC(O)(CC(O)CC(O)C(O)CCC(=O)O1)CC(O)C2C(=O)O (stereo not drawn)	> 339 µM	> 339 µM	–
O=c1c2ccccc2c2nccn2c2ccccc12	182 µM	> 200 µM	–
O=C(O)CCC(NC(=O)c1ccc(OCc2nc3cc(C(F)(F)F)ccc3nc2-c2ccccc2)cc1)C(=O)O (stereo not drawn)	> 200 µM	> 200 µM	–
O=C1NC(=O)C2C(=O)NC(=O)C1C2(c1ccccc1)c1ccc(Cl)cc1 (stereo not drawn)	> 676 µM	468 µM	–
O=C1/C(=C/c2cccc(F)c2)CCc2ccccc21	> 14.8 µM	> 14.8 µM	–
N#CCCN(C1=NN(C(=O)CC(=O)Nc2ccccc2)C(c2ccccc2)C1)c1ccccc1Cl (stereo not drawn)	> 269 µM	> 269 µM	–
C[C@]12CCC3[C@@H](CC[C@@H]4c5nonc5CC[C@]34C)C1CCC(=O)N2 (stereo partly drawn)	> 97.7 µM	> 97.7 µM	–
CC(C)(C)C[PH+](CC[PH+](CC(C)(C)C)CC(C)(C)C)CC(C)(C)C.[C-]#[O+].[C-]#[O+].[C-]#[O+].[C-]#[O+].[Mo]	> 3.47 µM	> 3.47 µM	–
O=C(c1ccccc1)C1S(=O)(=O)OCCOS1(=O)=O	> 5130 µM	3090 µM	–
O=C(/C=C/c1ccc([N+](=O)[O-])cc1)c1nc2ccccc2[nH]1	> 200 µM	4.37 µM	–
CCOC(=O)c1cc2c3ccn(Cc4ccccc4)c3c3c(C)[nH]oc3c2n1	26.3 µM	> 200 µM	–
O=c1oc2ccccc2c(O)c1C(c1ccc(O)cc1)c1c(O)c2ccccc2oc1=O	–	–	inactive
Cc1cc(C)nc(NS(=O)(=O)c2ccc(Nc3c4ccccc4nc4c(C(=O)N5CCN(CCO)CC5)cccc34)cc2)n1	> 36.3 µM	> 36.3 µM	–
OC1C[C@H](c2ccccc2)C2(C(O)c3ccccc3C2O)[C@@H](c2ccccc2)C1 (stereo partly drawn)	> 200 µM	89.1 µM	–
O=c1cn[nH]c2ccc(Br)cc12	> 95.5 µM	> 95.5 µM	–
O=C(O)C1CC2C3C=CC(C3)C2C1 (stereo not drawn) (tested in a mixture with another compound)	> 64.6 µM	45.7 µM	–
CC(C)c1cc(C(C)C)c(S(=O)(=O)N=[N+]=[N-])c(C(C)C)c1	> 17 µM	> 17 µM	–

SMILES	EC50	IC50	outcome
CCOC(=O)C(N)CSSCC(N)C(=O)OCC (stereo not drawn)	> 200 µM	> 200 µM	–
C=CCC1(O)CC(n2cc(C)c(=O)[nH]c2=O)OC1CO[Si](C)(C)C(C)(C)C (stereo not drawn)	> 200 µM	91.2 µM	–
CCOP(=O)(OCC)C1C(=O)O[C@H]2CCCC[C@@H]12 (stereo partly drawn)	–	–	inactive
N/C(=N\NS(=O)(=O)c1ccccc1)Oc1ccc(Cl)cc1	> 398 µM	339 µM	–
Cc1cc(C)c(C2=NOC(c3ccccc3)(c3cc(=O)n(-c4ccccc4)s3)O2)c(C)c1 (stereo not drawn)	8.51 µM	38 µM	–
CCO/C=N/C1=C(C#N)C(c2ccc(OC)c(OC)c2)c2c(-c3ccccc3)nn(-c3ccccc3)c2O1 (stereo not drawn)	> 100 µM	14.1 µM	–
NC(=O)C(=Cn1c(=S)[nH]c2ccccc21)C(N)=O	> 200 µM	> 200 µM	–
Nc1ncnc2c1N=CN(Oc1ccccc1)N2	–	–	inactive
O=C1NC(=O)C(C(=O)C(=O)Nc2ccc(Cl)cc2Cl)C(=O)N1	> 275 µM	> 275 µM	–
O=C1c2c(O)cc(O)cc2C(C2OC(CO)C(O)C(O)C2O)c2cc(CO)cc(O)c21 (stereo not drawn)	> 200 µM	> 200 µM	–
CCOC(=O)/C(Cl)=C(\C)Nc1nc2c(ccc3ccccc32)s1	> 100 µM	49 µM	–
COC(=O)c1ccc(NC(=O)O/N=C(\Cl)C(C)C)cc1	> 20 µM	3.63 µM	–
Cc1ccc(S(=O)(=O)N2CCSCCN(S(=O)(=O)c3ccc(C)cc3)CCN(S(=O)(=O)c3ccc(C)cc3)CC2)cc1	> 4.17 µM	> 4.17 µM	–
COc1ccc2c(c1)[n+]([O-])c(/C(C)=N/NC(N)=S)c(C)[n+]2[O-]	> 209 µM	102 µM	–
N#C/C1=C(\N)CCSSSC1	> 457 µM	22.9 µM	–
O=S(=O)(N=S(c1ccccc1)c1ccccc1)c1ccccc1	> 145 µM	> 145 µM	–
O=C(/C=C/c1ccccc1Cl)c1cccc2ccccc12	> 9.33 µM	> 9.33 µM	–
COc1cc(/C=C2/SC(c3ccccc3)N(c3ccccc3)C2=O)cc(OC)c1OC (stereo not drawn)	> 20 µM	4.47 µM	–
COc1ccccc1C1=Nc2ccccc2N=C(c2ccccc2O)C1	> 200 µM	93.3 µM	–
Clc1cc(Cc2cc(Cl)c(Cl)c3c2OCOC3)c2c(c1Cl)COCO2	–	–	inactive
Cc1ncc2c(n1)NC(c1ccc([N+](=O)[O-])cc1)NC2 (stereo not drawn)	> 69.2 µM	> 69.2 µM	–

SMILES	EC50	IC50	outcome
CCCn1c(SC)nc(COC(=O)NC)c1COC(=O)NC	> 200 µM	> 200 µM	–
CC(C)(C)c1cc(-c2cc(C(C)(C)C)n(-c3ccccc3)n2)nn1-c1ccccc1	> 200 µM	89.1 µM	–
C/C(=N\NC(=S)N(C)C)c1ncc[nH]1	> 234 µM	4.27 µM	–
C(=C\c1ccnc2ccccc12)/c1ccc2c(c1)OCO2	–	66.1 µM	inactive
CC(NC(=O)OC(C)(C)C)C(=O)NC1CCCC1 (stereo not drawn)	> 200 µM	> 200 µM	–
COc1c(NC(C)=O)cc(C)cc1NC(C)=O	–	–	inactive
Cc1cc(OCC(=O)N/N=C/C(Br)=C/c2ccccc2)nc(SCC(=O)N/N=C/C(Br)=C/c2ccccc2)n1	> 200 µM	17.8 µM	–
COc1ccccc1NC(=S)N/N=C/c1cccc(C)n1	> 200 µM	2.75 µM	–
Cn1cc(-c2ccc3c4ccccc4n(C)c3c2)c2ccccc21	> 8.71 µM	> 8.71 µM	–
Cc1cc(=O)oc2cc(O/C(=C\c3ccc(O)cc3)c3nc4ccccc4c(=O)o3)ccc12	> 22.9 µM	> 22.9 µM	–
CCCCI(O)OS(=O)(=O)c1ccc(C)cc1	–	–	inactive
COC(=O)c1cc(C(c2cc(C(=O)OC)c(OC)c(Br)c2C)C(Cl)(Cl)Cl)c(C)c(Br)c1OC	> 200 µM	25.7 µM	–
CCCCCCCCCCCCCCCCP(=O)(O)OCC(N)C(=O)O (stereo not drawn)	> 200 µM	95.5 µM	–
O=C(OCC(OC(=O)c1ccccc1)C1CC(C2(O)CCCCC2)C(=O)O1)c1ccccc1 (stereo not drawn)	> 50.1 µM	> 50.1 µM	–
CCN(CC)P1(=O)C=C(C)C2C1C1C=C(C)C2P1(=O)N(CC)CC (stereo not drawn)	–	–	inactive
Cn1c(=O)oc2ccc(S(=O)(=O)Nc3ccc(Cl)cc3[N+](=O)[O-])cc21	> 200 µM	28.2 µM	–
CCOC(=O)C(NC(=O)c1ccccc1)(Nc1ccc(Cl)cc1C(F)(F)F)C(F)(F)F (stereo not drawn)	> 200 µM	3.55 µM	–
Cc1ccc(N=C2SC(c3ccc(C)cc3)(c3ccc(C)cc3)c3ccccc32)cc1	> 200 µM	> 200 µM	–
O=C(Oc1ccc(OC(=O)c2ccccc2)c(C(=O)c2ccccc2)c1C(=O)c1ccccc1)c1ccccc1	> 200 µM	> 200 µM	–
